Assay results as given in PubChem BioAssay AID1963871 (Molecular Pharmacology Branch, DTP, NCI, 2024).

System: KRAS-mutant PDC multicell tumor spheroid viability
Test: Anticancer human tumor 521955-158-R2-J5-PDC patient-derived pancreatic carcinoma cell line growth inhibition [KRAS2]
Conditions: for IC50: curve of first compound; for viability, T/C: stronger effect = lower value; active means viability on the fitted dose curve at most 10% of control; inactive means the rest
Excerpt: Multicellular complex tumor spheroid response to RAS pathway inhibitors in combination with a targeted agents in patient-derived cell lines with oncogenic KRAS variants from multiple cancer types
A high-throughput screen of multi-cell type tumor spheroids was designed to identify active combinations of targeted small molecules and KRAS pathway inhibitors. Complex spheroids include a stromal component modeled by human endothelial cells (HUVEC) and fibroblasts modeled by human mesenchymal stem cells (MSCs). The concentration ranges selected for each drug and investigational agent were based upon clinically achievable concentrations if the clinical Cmax of the agent was known.
Compounds. The drugs and investigational agents: BI-3406 (NSC825286), BAY-293 (NSC824723), batoprotafib (TNO155; NSC825523), sotorasib (AMG 510; NSC818433), MRTX1257 (NSC819558), elimusertib (BAY 1895344; NSC800525), molibresib (GSK525762; NSC774829), temuterkib (LY3214996; NSC803410), venetoclax (NSC766270), alisertib (NSC759677), olaparib (NSC753686), talazoparib (NSC767125), erdafitinib (NSC781556), ipatasertib (NSC767898), cabozantinib (NSC761068), nintedanib (NSC756659), abemaciclib (NSC768073), docetaxel (NSC628503), trametinib (NSC758246), and sapanisertib (NSC764658) were obtained from the National Cancer Institute (NCI) Developmental Therapeutics Program Chemical Repository. The FDA-approved anticancer drug set is available from the Developmental Therapeutics Program. […] The stock solutions were prepared in dimethyl sulfoxide (DMSO, Sigma-Aldrich, St. Louis, MO, cat. D2650) at 800-fold the tested concentration and stored at -70 degrees C prior to their use. All drugs and investigational agents were tested over a range starting from a high concentration at or near the clinical Cmax and decreasing in half-log increments. If the clinical Cmax for an agent had not been determined, the highest concentration tested was 10 microM.
Cell Culture. All cells were maintained in an incubator at 37 degrees C and 5% CO2 with 95% humidity. The PDC lines were cultured according to standard operating procedures established by the NCI PDMR (https://pdmr.cancer.gov/sops/default.htm). Briefly, all PDCs were thawed and cultured in Matrigel-coated flasks prepared with a working solution of 1X Ham's F-12 nutrient mix, without supplementation (Invitrogen, Waltham, MA, cat. 11765054), 100 U/mL penicillin-streptomycin (Invitrogen, cat. 15140122), and 2.5% Matrigel (Corning Inc., Corning, NY, cat. 354248) for the first three passages. All PDCs were cultured in complete DMEM/F-12 media containing advanced DMEM/F-12 (Invitrogen, cat. 12634028), 4.9% defined fetal bovine serum, heat inactivated (HyClone Laboratories Inc., Logan, UT, cat. SH30070.03HI), 389 ng/mL hydrocortisone (Sigma-Aldrich, cat. H4001), 9.7 ng/mL human EGF recombinant protein (Invitrogen, cat. PHG0313), 23.4 microg/mL adenine (Sigma-Aldrich, cat. A2786), 97.3 U/mL penicillin-streptomycin (Invitrogen, cat. 15140122), 1.9 mM L-glutamine (Invitrogen, cat. 25030081), and 9.7 microM Y-27632 dihydrochloride (Tocris Bioscience, Bristol, United Kingdom, cat. 1254). The PDCs were cultured in complete DMEM/F12 media without 9.7 microM Y-27632 dihydrochloride for at least two passages prior to the screen. The established cell line HOP-62 was cultured in RPMI 1640 medium, HEPES (Invitrogen, cat. 22400105) with 10% defined fetal bovine serum (HyClone Laboratories Inc., cat. SH30070.03) and 2 mM L-glutamine (Invitrogen, cat. 25030081). The pooled donor HUVEC were cultured in endothelial cell growth medium 2 (PromoCell, Heidelberg, Germany, cat. C-22011) and the hMSC were cultured in mesenchymal stem cell growth medium 2 (PromoCell, cat. C-28009). For all experiments, HUVEC and hMSC were used at passages </=5, while the malignant cell lines were used at passages </=15. […]

[1] = second compound 0.1 µM, first compound 0.0316 µM
[2] = second compound 0.316 µM, first compound 0.0316 µM
[3] = second compound 1 µM, first compound 0.0316 µM
[4] = second compound 3.16 µM, first compound 0.0316 µM
[5] = second compound 10 µM, first compound 0.0316 µM
[6] = second compound 0.1 µM, first compound 0.1 µM
[7] = second compound 0.1 µM, first compound 0.316 µM
[8] = second compound 0.1 µM, first compound 1 µM
[9] = second compound 0.1 µM, first compound 3.16 µM
[10] = second compound 0.1 µM, first compound 10 µM
[11] = second compound 0.316 µM, first compound 0.1 µM
[12] = second compound 0.316 µM, first compound 0.316 µM
[13] = second compound 0.316 µM, first compound 1 µM
[14] = second compound 0.316 µM, first compound 3.16 µM
[15] = second compound 0.316 µM, first compound 10 µM
[16] = second compound 1 µM, first compound 0.1 µM
[17] = second compound 1 µM, first compound 0.316 µM
[18] = second compound 1 µM, first compound 1 µM
[19] = second compound 1 µM, first compound 10 µM
[20] = second compound 3.16 µM, first compound 0.1 µM
[21] = second compound 3.16 µM, first compound 0.316 µM
[22] = second compound 3.16 µM, first compound 1 µM
[23] = second compound 3.16 µM, first compound 3.16 µM
[24] = second compound 3.16 µM, first compound 10 µM
[25] = second compound 10 µM, first compound 0.1 µM
[26] = second compound 10 µM, first compound 0.316 µM
[27] = second compound 10 µM, first compound 1 µM
[28] = second compound 10 µM, first compound 3.16 µM
[29] = second compound 10 µM, first compound 10 µM
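Further: viability read after seven days of drug exposure.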

CC(=O)Nc1cccc(-n2c(=O)n(C3CC3)c(=O)c3c(Nc4ccc(I)cc4F)n(C)c(=O)c(C)c32)c1 + C=CC(=O)N1CCN(c2nc(=O)n(-c3c(C)ccnc3C(C)C)c3nc(-c4c(O)cccc4F)c(F)cc23)C(C)C1
inactive: viability, T/C (second compound 0.1 µM, first compound 0.0001 µM) 84.6% | viability, T/C (second compound 0.1 µM, first compound 0.000316 µM) 52.6% | viability, T/C (second compound 0.1 µM, first compound 0.001 µM) 41.3% | viability, T/C (second compound 0.1 µM, first compound 0.00316 µM) 30.1% | viability, T/C (second compound 0.1 µM, first compound 0.01 µM) 25.8% | viability, T/C [1] 15.7% | viability, T/C (second compound 0.316 µM, first compound 0.0001 µM) 89.7% | viability, T/C (second compound 0.316 µM, first compound 0.000316 µM) 51.9% | viability, T/C (second compound 0.316 µM, first compound 0.001 µM) 38.2% | viability, T/C (second compound 0.316 µM, first compound 0.00316 µM) 31.4% | viability, T/C (second compound 0.316 µM, first compound 0.01 µM) 28.9% | viability, T/C [2] 19.6% | viability, T/C (second compound 1 µM, first compound 0.0001 µM) 87.9% | viability, T/C (second compound 1 µM, first compound 0.000316 µM) 61% | viability, T/C (second compound 1 µM, first compound 0.001 µM) 54.7% | viability, T/C (second compound 1 µM, first compound 0.00316 µM) 36.6% | viability, T/C (second compound 1 µM, first compound 0.01 µM) 32.9% | viability, T/C [3] 24.5% | viability, T/C (second compound 3.16 µM, first compound 0.0001 µM) 63.5% | viability, T/C (second compound 3.16 µM, first compound 0.000316 µM) 51.7% | viability, T/C (second compound 3.16 µM, first compound 0.00316 µM) 33.5% | viability, T/C (second compound 3.16 µM, first compound 0.01 µM) 29.5% | viability, T/C [4] 18.5% | viability, T/C (second compound 10 µM, first compound 0.0001 µM) 50.6% | viability, T/C (second compound 10 µM, first compound 0.000316 µM) 37.1% | viability, T/C (second compound 10 µM, first compound 0.001 µM) 28.8% | viability, T/C (second compound 10 µM, first compound 0.00316 µM) 32.4% | viability, T/C (second compound 10 µM, first compound 0.01 µM) 25% | viability, T/C [5] 17.8%
1 nM: IC50 (second compound 1 µM)
0.444 nM: IC50 (second compound 3.16 µM)
0.493 nM: IC50 (second compound 0.1 µM)
0.426 nM: IC50 (second compound 0.316 µM)
< 0.1 nM: IC50 (second compound 10 µM)

COC(=O)c1ccc2c(C(=Nc3ccc(N(C)C(=O)CN4CCN(C)CC4)cc3)c3ccccc3)c(O)[nH]c2c1 + C=CC(=O)N1CCN(c2nc(=O)n(-c3c(C)ccnc3C(C)C)c3nc(-c4c(O)cccc4F)c(F)cc23)C(C)C1
active: viability, T/C [10] 0.16% | viability, T/C [15] 0.14% | viability, T/C [19] 0.16% | viability, T/C [23] 2.33% | viability, T/C [24] 0.14% | viability, T/C [28] 4.87% | viability, T/C [29] 0.22%
1260 nM: IC50 (second compound 10 µM)
1010 nM: IC50 (second compound 3.16 µM)
727 nM: IC50 (second compound 1 µM)
1720 nM: IC50 (second compound 0.1 µM)
inactive: viability, T/C [1] 89.6% | viability, T/C [6] 88.4% | viability, T/C [7] 87% | viability, T/C [8] 75.9% | viability, T/C [9] 21% | viability, T/C [2] 102% | viability, T/C [11] 88.1% | viability, T/C [12] 89.9% | viability, T/C [13] 74.2% | viability, T/C [14] 10.3% | viability, T/C [3] 113% | viability, T/C [16] 96.4% | viability, T/C [17] 77% | viability, T/C [18] 43.5% | viability, T/C (second compound 1 µM, first compound 3.16 µM) 4.15% | viability, T/C [4] 86% | viability, T/C [20] 82.1% | viability, T/C [21] 67.9% | viability, T/C [22] 53.4% | viability, T/C [5] 66.5% | viability, T/C [25] 71.5% | viability, T/C [26] 56.6% | viability, T/C [27] 61.2%
1540 nM: IC50 (second compound 0.316 µM)

COc1cc(Nc2ncc3c(n2)-c2ccc(Cl)cc2C(c2c(F)cccc2OC)=NC3)ccc1C(=O)O + C=CC(=O)N1CCN(c2nc(=O)n(-c3c(C)ccnc3C(C)C)c3nc(-c4c(O)cccc4F)c(F)cc23)C(C)C1
inactive: viability, T/C [1] 47.6% | viability, T/C [6] 49.3% | viability, T/C [7] 43% | viability, T/C [8] 42.2% | viability, T/C [9] 46.1% | viability, T/C [10] 38.8% | viability, T/C [2] 43.2% | viability, T/C [11] 44.5% | viability, T/C [12] 52.2% | viability, T/C [13] 44.5% | viability, T/C [14] 44.3% | viability, T/C [15] 36.4% | viability, T/C [3] 48.1% | viability, T/C [16] 44.8% | viability, T/C [17] 43.1% | viability, T/C [18] 48% | viability, T/C [19] 32.7% | viability, T/C [4] 47.5% | viability, T/C [20] 45.9% | viability, T/C [21] 36% | viability, T/C [22] 40.3% | viability, T/C [23] 37% | viability, T/C [24] 31.9% | viability, T/C [5] 40.6% | viability, T/C [25] 43.5% | viability, T/C [26] 38.5% | viability, T/C [27] 37.5% | viability, T/C [28] 34.8% | viability, T/C [29] 39.6%
< 31.6 nM: IC50 (second compound 0.1 µM) | IC50 (second compound 0.316 µM) | IC50 (second compound 1 µM) | IC50 (second compound 3.16 µM) | IC50 (second compound 10 µM)
